Results on 28 molecules are retold here after US11066392B2, “Inhibitors of indoleamine 2,3-dioxygenase and methods of their use” (BRISTOL-MYERS SQUIBB COMPANY, priority 2017, dated 2021).

The structures appear in SMILES notation.

One assay deals with indoleamine 2,3-dioxygenase (IDO) (Homo sapiens, UniProt P14902). As to the kind of experiment: HeLa cell-based indoleamine 2,3-dioxygenase (IDO) assay (kynurenine production, IFNγ-stimulated). Conditions: HeLa cells, IFNγ 25 ng/mL, 48 hour incubation; read-out: IDO Hela IC50. As to the method: Assessment of inhibitor activity in HeLa cell-based indoleamine 2,3-dioxygenase (IDO) assay. HeLa (ATCC® CCL-2) cells were obtained from the ATCC® and cultured in Dulbecco's Modified Eagle Medium supplemented with 4.5 g/L glucose, 4.5 […] sodium pyruvate (#10-013-CV, Corning), 2 mM L-alanyl-L-glutamine dipeptide (#35050-061, Gibco), 100U/mL penicillin, 100 μg/mL streptomycin (#SV30010, HyClone) and 10% fetal bovine serum (#SH30071.03 HyClone). Cells were maintained in a humidified incubator at 37° C. in 5% CO2. […] After 24 hours, the media was aspirated and replaced with media containing IFNγ (#285-IF/CF, R&D Systems) at a final concentration of 25 ng/mL. A serial dilution of each test compound was added to the cells in a total volume of 200 μL of culture medium. After a further 48 hour incubation, 170 μL of supernatant was transferred from each well to a fresh 96-well plate. 12.1 μL of 6.1N trichloroacetic acid (#T0699, Sigma-Aldrich) was added to each well and mixed, followed by incubation at 65° C. for 20 minutes to hydrolyze N-formylkynurenine, the product of indoleamine 2,3-dioxygenase, to kynurenine. The reaction mixture was then centrifuged for 10 mins at 500×g to sediment the precipitate. 100 μL of the supernatant was transferred from each well to a fresh 96-well plate. 100 μl of 2% (w/v) p-dimethylaminobenzaldehyde (#15647-7, Sigma-Aldrich) in acetic acid (#A6283, Sigma-Aldrich) was added to each well mixed and incubated at room temperature for 20 mins. Kynurenine concentrations were determined by measuring absorbance at 480 nm and calibrating against an L-kynurenine (#K8625, Sigma-Aldrich) standard curve using a SPECTRAMAX® M2e microplate reader (Molecular Devices). The percentage activity at each inhibitor concentration was determined and IC50 values assessed using nonlinear regression. Activity for compounds described herein is provided in Table 1, wherein potency levels are provided as follows: (Potency: IDO IC50: […])
indoleamine 2,3-dioxygenase (IDO), sequence (P14902 whole entry): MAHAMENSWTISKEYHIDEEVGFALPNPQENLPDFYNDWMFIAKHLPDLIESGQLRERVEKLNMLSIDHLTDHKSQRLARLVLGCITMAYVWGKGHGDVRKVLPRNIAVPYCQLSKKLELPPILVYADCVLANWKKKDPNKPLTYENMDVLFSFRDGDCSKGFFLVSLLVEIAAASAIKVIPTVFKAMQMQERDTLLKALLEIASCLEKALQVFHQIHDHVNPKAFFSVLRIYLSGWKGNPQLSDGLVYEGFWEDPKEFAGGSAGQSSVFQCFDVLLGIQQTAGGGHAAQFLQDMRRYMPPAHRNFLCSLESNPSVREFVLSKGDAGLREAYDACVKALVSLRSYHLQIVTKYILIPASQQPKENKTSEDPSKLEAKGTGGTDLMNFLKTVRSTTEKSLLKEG
What is called IC50 is the point on the concentration scale where inhibition reaches its midpoint. As to `CCC(NC(=O)c1ccc(OC)nc1)C1CCC(c2cccc(=O)n2C)CC1` (single isomer, unassigned) [Example 32b, 6-Methoxy-N-(1-(4-(1-methyl-6-oxo-1,6-dihydropyridin-2-yl)cyclohexyl)propyl)nicotinamide], the IC50 was determined as 80 nM.
Turning to `CCC(NC(=O)c1ccc(OC)nc1)C1CCC(c2cccc(=O)n2C)CC1` (single isomer, unassigned) [Example 32c, 6-Methoxy-N-(1-(4-(1-methyl-6-oxo-1,6-dihydropyridin-2-yl)cyclohexyl)propyl)nicotinamide], the IC50 was 740 nM.
With `CCC(NC(=O)c1ccc(OC)nc1)[C@H]1CC[C@@H](c2cc(C)ccn2)CC1` (single isomer, unassigned) [Example 45a, (±)-6-methoxy-N-(1-(4-(4-methylpyridin-2-yl)cyclohexyl)propyl)nicotinamide], the IC50 worked out at 220 nM.
The same measure, in the same setting: next, `CCC(NC(=O)c1ccc(OC)nc1)[C@H]1CC[C@@H](c2cc(C)ccn2)CC1` (single isomer, unassigned) [Example 45b, (±)-6-methoxy-N-(1-(4-(4-methylpyridin-2-yl)cyclohexyl)propyl)nicotinamide]: 620 nM.
Take `CCC(NC(=O)c1ccc(OC)nc1)C1CCC(c2cccc(C)n2)CC1` (single isomer, unassigned) [Example 46a, 6-methoxy-N-(1-(4-(6-methylpyridin-2-yl)cyclohexyl)propyl)nicotinamide]: the IC50 stood at 330 nM.
In the case of `CCC(NC(=O)c1ccc(OC)nc1)C1CCC(c2cccc(C(F)(F)F)n2)CC1` (single isomer, unassigned) [Example 47a, 6-methoxy-N-(1-(4-(6-(trifluoromethyl)pyridin-2-yl)cyclohexyl)propyl)nicotinamide], the IC50 was 180 nM.
The same measure, in the same setting: in the case of `CCC(NC(=O)c1ccc(OC)nc1)C1CCC(c2cccc(C(F)(F)F)n2)CC1` (single isomer, unassigned) [Example 47d, 6-methoxy-N-(1-(4-(6-(trifluoromethyl)pyridin-2-yl)cyclohexyl)propyl)nicotinamide] it was 290 nM; in that of `CCC(NC(=O)c1ccc(OC)nc1)C1CCC(c2cccc(OC(F)F)n2)CC1` (single isomer, unassigned) [Example 48a, N-(1-(4-(6-(difluoromethoxy)pyridin-2-yl)cyclohexyl)propyl)-6-methoxynicotinamide], 360 nM.
For `CCC(NC(=O)c1ccc(OC)nc1)C1CCC(c2cccc(OC(F)F)n2)CC1` (single isomer, unassigned) [Example 48c, N-(1-(4-(6-(difluoromethoxy)pyridin-2-yl)cyclohexyl)propyl)-6-methoxynicotinamide], the IC50 came to 270 nM.
As to `CCC(NC(=O)c1ccc(OC)nc1)[C@H]1CC[C@@H](c2nccc(C)n2)CC1` (single isomer, unassigned) [Example 49a, (±)-6-methoxy-N-(1-(4-(4-methylpyrimidin-2-yl)cyclohexyl)propyl)nicotinamide], the half-inhibitory concentration (IC50) is 70 nM.
Consider `CCC(NC(=O)c1ccc(OC)nc1)[C@H]1CC[C@@H](c2nccc(C)n2)CC1` (single isomer, unassigned) [Example 49b, (±)-6-methoxy-N-(1-(4-(4-methylpyrimidin-2-yl)cyclohexyl)propyl)nicotinamide], for which the half-inhibitory concentration (IC50) was determined as 30 nM.
`CC[C@H](NC(=O)c1ccc(OC)nc1)[C@H]1CC[C@@H](c2cncc(OC)c2)CC1` (single isomer, unassigned) [Example 50a, 6-methoxy-N-(1-(4-(5-methoxypyridin-3-yl)cyclohexyl)propyl)nicotinamide]: the half-inhibitory concentration (IC50) was 990 nM.
On the same count and under the same terms, in the case of `CC[C@H](NC(=O)c1ccc(OC)nc1)[C@H]1CC[C@@H](c2cncc(OC)c2)CC1` (single isomer, unassigned) [Example 50b, 6-methoxy-N-(1-(4-(5-methoxypyridin-3-yl)cyclohexyl)propyl)nicotinamide] it was 250 nM; in that of `CC[C@H](NC(=O)c1ccc(OC)nc1)[C@H]1CC[C@@H](c2cncc(OC)c2)CC1` (single isomer, unassigned) [Example 50d, 6-methoxy-N-(1-(4-(5-methoxypyridin-3-yl)cyclohexyl)propyl)nicotinamide], 220 nM; in that of `COC[C@H](NC(=O)c1ccc(OC)nc1)[C@H]1CC[C@@H](c2ccnc(OC)c2C(F)F)CC1` (single isomer, unassigned) [Example 51b, N-(1-(4-(3-(difluoromethyl)-2-methoxypyridin-4-yl)cyclohexyl)-2-methoxyethyl)-6-methoxynicotinamide], 390 nM.
Turning to `COC[C@H](NC(=O)c1ccc(OC)nc1)[C@H]1CC[C@@H](c2ccnc(OC)c2C(F)F)CC1` (single isomer, unassigned) [Example 51c, N-(1-(4-(3-(difluoromethyl)-2-methoxypyridin-4-yl)cyclohexyl)-2-methoxyethyl)-6-methoxynicotinamide], the IC50 came out at 220 nM.
As to `COC[C@H](NC(=O)c1ccc(OC)nc1)[C@H]1CC[C@@H](c2ccnc(OC)c2C(F)F)CC1` (single isomer, unassigned) [Example 51d, N-(1-(4-(3-(difluoromethyl)-2-methoxypyridin-4-yl)cyclohexyl)-2-methoxyethyl)-6-methoxynicotinamide], the IC50 turned out to be 100 nM.
As to `CC[C@@H](NC(=O)c1ccc(OC)nc1)[C@H]1CC[C@@H](c2ccnc3ncccc32)CC1` (single isomer, unassigned) [Example 53a, N-(1-(4-(1,8-naphthyridin-4-yl)cyclohexyl)propyl)-6-methoxynicotinamide], the IC50 amounted to 10 nM.
The same measure, in the same setting: next, `CC[C@@H](NC(=O)c1ccc(OC)nc1)[C@H]1CC[C@@H](c2ccnc3ncccc32)CC1` (single isomer, unassigned) [Example 53b, N-(1-(4-(1,8-naphthyridin-4-yl)cyclohexyl)propyl)-6-methoxynicotinamide]: 680 nM.

The same assay, now with this note: HeLa cells; potency class; read-out: Patent Potency Hela IC50 A < 10 nM, B > 10 nM, C > 100 nM.
`CCC(NC(=O)c1ccc(OC)nc1)C1CCC(c2cccc(=O)n2C)CC1` (single isomer, unassigned) [Example 32a, 6-Methoxy-N-(1-(4-(1-methyl-6-oxo-1,6-dihydropyridin-2-yl)cyclohexyl)propyl)nicotinamide]: the IC50 was greater than 100 nM.
In the case of `CCC(NC(=O)c1ccc(OC)nc1)C1CCC(c2cccc(=O)n2C)CC1` (single isomer, unassigned) [Example 32d, 6-Methoxy-N-(1-(4-(1-methyl-6-oxo-1,6-dihydropyridin-2-yl)cyclohexyl)propyl)nicotinamide], the IC50 is greater than 100 nM.
Turning to `CCC(NC(=O)c1ccc(OC)nc1)C1CCC(c2cccc(C)n2)CC1` (single isomer, unassigned) [Example 46b, 6-methoxy-N-(1-(4-(6-methylpyridin-2-yl)cyclohexyl)propyl)nicotinamide], the half-inhibitory concentration (IC50) is greater than 100 nM.
The same measure, in the same setting: next, `CCC(NC(=O)c1ccc(OC)nc1)C1CCC(c2cccc(C)n2)CC1` (single isomer, unassigned) [Example 46c, 6-methoxy-N-(1-(4-(6-methylpyridin-2-yl)cyclohexyl)propyl)nicotinamide]: greater than 100 nM.
For `CCC(NC(=O)c1ccc(OC)nc1)C1CCC(c2cccc(C(F)(F)F)n2)CC1` (single isomer, unassigned) [Example 47b, 6-methoxy-N-(1-(4-(6-(trifluoromethyl)pyridin-2-yl)cyclohexyl)propyl)nicotinamide], the concentration for half-maximal inhibition (IC50) was greater than 100 nM.
`CCC(NC(=O)c1ccc(OC)nc1)C1CCC(c2cccc(C(F)(F)F)n2)CC1` (single isomer, unassigned) [Example 47c, 6-methoxy-N-(1-(4-(6-(trifluoromethyl)pyridin-2-yl)cyclohexyl)propyl)nicotinamide]: the IC50 was greater than 100 nM.
Regarding `CCC(NC(=O)c1ccc(OC)nc1)C1CCC(c2cccc(OC(F)F)n2)CC1` (single isomer, unassigned) [Example 48b, N-(1-(4-(6-(difluoromethoxy)pyridin-2-yl)cyclohexyl)propyl)-6-methoxynicotinamide], the half-maximal inhibitory concentration (IC50) was greater than 100 nM.
Take `CCC(NC(=O)c1ccc(OC)nc1)C1CCC(c2cccc(OC(F)F)n2)CC1` (single isomer, unassigned) [Example 48d, N-(1-(4-(6-(difluoromethoxy)pyridin-2-yl)cyclohexyl)propyl)-6-methoxynicotinamide]: the IC50 was greater than 100 nM.
In the case of `COC[C@H](NC(=O)c1ccc(OC)nc1)[C@H]1CC[C@@H](c2ccnc(OC)c2C(F)F)CC1` (single isomer, unassigned) [Example 51a, N-(1-(4-(3-(difluoromethyl)-2-methoxypyridin-4-yl)cyclohexyl)-2-methoxyethyl)-6-methoxynicotinamide], the IC50 is less than 10 nM.
